From patent publication US20050144654A1, “Procedure for screening of neuroactive substance and the associated neural plasticity” (COUNCIL OF SCIENTIFIC & INDUSTRIAL RESEARCH, priority 2003, published 2005)
Where a name gives a salt, the structure may show the parent alone. Marks after values point to notes of the source that are not given here.

Key:
[1] = system: Drosophila melanogaster adult males (wild type Oregon-R strain); assay: Negative geotaxis assay (height climbed, climbing speed); format: in vivo; settings: for Height climbed by flies, Mean / Climbing speed of flies, Mean: n=30
Method: (§1) Unless otherwise mentioned, standard methods of fly manipulation were followed. Standard fly medium consisting of agar-agar, maize powder, brown sugar, dried yeast and nipagin was used. Flies were cultured at 22±1° C., 60% RH, and 12 hrs light (9 AM to 9 PM) and 12 hours dark cycle. D. melanogaster wild type Oregon-R strain was used in the experiment. To obtain males for control and drug treatment, flies from identical cultures grown in glass vials were first allowed to lay eggs in milk bottles containing medium. Flies were shifted to fresh bottles every 12 hr. First 4 sets of bottles were discarded. Flies that emerged in subsequent bottles were only used. Those that emerged in the beginning were first discarded and then flies were collected twice at 12 hr interval. Flies collected each time were kept separately in a single bottle. Two days after first collection, males and females from both the bottles were separated. Males were then pooled together and shifted to a new bottle. Flies were used for control or drug treatment two days later.
(§2) Following morning after pooling males for treatment, drugs (Sigma-Aldrich Co, St. Louis, U.S.A.) were first dissolved in distilled water at following concentration: 33.3 mg/ml of strychnine (STR), 40 mg/ml of pentylenetetrazol (PTZ), 20 mg/ml of pilocarpine-hydrochloride (PILO), 20 mg/ml of tetraethylammonium chloride (TEA), 10 mg/ml of lithium chloride (LICA), and 10.5 mg/ml of ethosuximide (ESD). Appropriate volume of freshly made drug solutions were then poured in molten fly media, and mixed thoroughly, to achieve a final concentration of 3.33 mg/ml of STR, 4 mg/ml of PTZ, 2 mg/ml of PILO, 2 mg/ml of TEA, 1 mg/ml of LICA, and 1.05 mg/ml of ESD. For control, i.e., normal food (NF), distilled water of same volume as drug solution was added in the medium and mixed. Following this, the molten media was dispensed in glass vials, stored overnight at 4° C. and then used for above treatment of flies. Thirty male flies were shifted to each of the seven treatment vials, NF, STR, PTZ, PILO, TEA, LICA and ESD. Flies were maintained at 22±1° C., 60% RH, and 12 hrs light (9 AM to 9 PM) and 12 hours dark cycle.
(§3) Negative geotaxis assays for measuring height climbed and climbing speed, and horizontal locomotion assay for measuring distance walked—were performed at room temperature, between 9 AM to 9 PM. They were all performed at a specified area in a room, where same light sources were always used. While measuring various locomotor activities, extreme care was taken to ensure that the room is quiet, and the table onto which assays were performed undisturbed and vibration free. Utmost care was taken to ensure identical handling of flies, in minutest details. For measuring height climbed, climbing speed and distance walked, a single fly was randomly selected at a time. This was achieved by first inverting flies from a given treatment vial into an empty vial and then continuously and gently shaking and inverting both the vials in such a way that a single fly is finally trapped in the empty vial. Once trapped, all the three locomotor activities were measured using the same fly, height climbed, climbing speed and distance walked, in that order. One fly each from NF, STR, PTZ, PILO, TEA, LICA, and ESD, selected randomly, was first scored and then the same exercise was repeated for another two flies. Once a fly was scored for all the three locomotor activities, it was discarded. Flies were particularly checked for intact legs and wings, before they were used in negative geotaxis and horizontal locomotion assays.
(§4) A glass tube of 1.7 cm diameter and […], along with two cotton plugs were used in negative geotaxis and horizontal locomotion assays. The tube was length wise marked with lines at every cm. Three flies from each treatment were assayed. Each fly was assayed 10 times in succession.

[2] = system: Drosophila melanogaster adult males (wild type Oregon-R strain); assay: Horizontal locomotion assay (distance walked); format: in vivo; settings: for Distance walked by flies, Mean: n=30; for distance walked than the control: 31 day of drug withdrawal, result in words
Method: as §1, §2, §3, §4

[3] = 4th day after drug withdrawal (21st day of beginning of treatment)
[4] = 31st day after drug withdrawal (48th day of beginning of treatment)
[5] = day 7 of the beginning of treatment, drug in fly medium
[6] = 31st day after drug withdrawal, result in words
[7] = day 7 of the beginning of treatment, result in words

Q: With `O=C1C[C@@H]2OCC=C3CN4CC[C@]56c7ccccc7N1[C@H]5[C@H]2[C@H]3C[C@H]46` [STR, strychnine] as the compound, how does the “Height climbed by flies, Mean” value [1, 3] read?
A: Its value is 26.26 cm.

Q: And the “Climbing speed of flies, Mean” value ([1]; 4th day after drug withdrawal)?
A: The value was 1.29** cm/sec.

Q: And the “Height climbed by flies, Mean” value [1, 4]?
A: Its value is 15.8 cm.

Q: And the “Climbing speed of flies, Mean” value ([1]; 31st day after drug withdrawal)?
A: The value was 1.04* cm/sec.

Q: What about the “Climbing speed, Mean” value [1, 5] of the same compound?
A: Its value is 1.53*** cm/sec.

Q: And the “Height climbed, Mean” value [1, 5]?
A: Its value is 33.36*** cm.

Q: What about the “Distance walked by flies, Mean” value ([2]; 4th day after drug withdrawal) of the same compound?
A: Its value is 43.66 cm marks crossed per minute.

Q: And the “Distance walked by flies, Mean” value ([2]; 31st day after drug withdrawal)?
A: The value was 27.66 cm marks crossed per minute.

Q: What about the “Distance walked, Mean” value [2, 5] of the same compound?
A: Its value is 39.33* cm marks crossed per minute.

Q: How did the “Height climbed by flies, Mean” value [1, 3] turn out when `CCC1(C)CC(=O)NC1=O` (centres unmarked) [ESD, ethosuximide] was run?
A: Its value is 32.66*** cm.

Q: And the “Climbing speed of flies, Mean” value ([1]; 4th day after drug withdrawal)?
A: Its value is 1.5*** cm/sec.

Q: What about the “height climbed compared to NF” value ([1]; 4th day after drug withdrawal, result in words) of the same compound?
A: Its value is “increase”.

Q: And the “Height climbed by flies, Mean” value [1, 4]?
A: Its value is 19.5*** cm.

Q: And the “Climbing speed of flies, Mean” value ([1]; 31st day after drug withdrawal)?
A: The value was 1.52*** cm/sec.

Q: And the “climbing speed than the control (Table 2)” value [1, 6]?
A: The value was “greater”.

Q: And the “Climbing speed, Mean” value [1, 5]?
A: Its value is 0.98 cm/s.

Q: And the “Height climbed, Mean” value [1, 5]?
A: Its value is 25.66* cm.

Q: And the “height climbed compared to NF, the control” value [1, 7]?
A: Its value is “increase”.

Q: What about the “Distance walked by flies, Mean” value ([2]; 4th day after drug withdrawal) of the same compound?
A: Its value is 40.16*** cm marks crossed per minute.

Q: And the “Distance walked by flies, Mean” value ([2]; 31st day after drug withdrawal)?
A: Its value is 30.63 cm marks crossed per minute.

Q: And the “Distance walked, Mean” value [2, 5]?
A: Its value is 37.1 cm marks crossed per minute.

Q: For `CC[N+](CC)(CC)CC.[Cl-]` [TEA, tetraethylammonium chloride], which “Height climbed by flies, Mean” value [1, 3] is on record?
A: Its value is 22.13 cm.

Q: What about the “Climbing speed of flies, Mean” value ([1]; 4th day after drug withdrawal) of the same compound?
A: Its value is 1.11 cm/s.

Q: What about the “Height climbed by flies, Mean” value [1, 4] of the same compound?
A: Its value is 16.2 cm.

Q: What about the “Climbing speed, Mean” value [1, 5] of the same compound?
A: Its value is 1.67*** cm/sec.

Q: And the “Height climbed, Mean” value [1, 5]?
A: Its value is 32*** cm.

Q: And the “height climbed compared to NF, the control” value [1, 7]?
A: The value was “increase”.

Q: And the “Distance walked by flies, Mean” value ([2]; 4th day after drug withdrawal)?
A: Its value is 26.76*** cm marks crossed per minute.

Q: And the “Distance walked by flies, Mean” value ([2]; 31st day after drug withdrawal)?
A: The value was 27.16 cm marks crossed per minute.

Q: What about the “Distance walked, Mean” value [2, 5] of the same compound?
A: Its value is 45.1*** cm marks crossed per minute.

Q: Which “Height climbed by flies, Mean” value [1, 3] does the source give for `CC[C@@H]1C(=O)OC[C@@H]1Cc1cncn1C` [PILO, pilocarpine-hydrochloride] here?
A: Its value is 19.96 cm.

Q: What about the “Climbing speed of flies, Mean” value ([1]; 4th day after drug withdrawal) of the same compound?
A: The value was 1.32** cm/sec.

Q: And the “Height climbed by flies, Mean” value [1, 4]?
A: Its value is 16.46 cm.

Q: What about the “Climbing speed of flies, Mean” value ([1]; 31st day after drug withdrawal) of the same compound?
A: The value was 1.14** cm/sec.

Q: And the “Climbing speed, Mean” value [1, 5]?
A: The value was 1.52*** cm/sec.

Q: And the “Height climbed, Mean” value [1, 5]?
A: The value was 34.66*** cm.

Q: And the “height climbed compared to NF, the control” value [1, 7]?
A: Its value is “increase”.

Q: What about the “Distance walked by flies, Mean” value ([2]; 4th day after drug withdrawal) of the same compound?
A: The value was 33.83** cm marks crossed per minute.

Q: What about the “Distance walked by flies, Mean” value ([2]; 31st day after drug withdrawal) of the same compound?
A: Its value is 21.16 cm marks crossed per minute.

Q: And the “Distance walked, Mean” value [2, 5]?
A: The value was 48.53*** cm marks crossed per minute.

Q: With `[Cl-].[Li+]` [LICA, lithium chloride] as the compound, how does the “Height climbed by flies, Mean” value [1, 3] read?
A: The value was 25.33 cm.

Q: And the “Climbing speed of flies, Mean” value ([1]; 4th day after drug withdrawal)?
A: The value was 1.22* cm/sec.

Q: What about the “Height climbed by flies, Mean” value [1, 4] of the same compound?
A: Its value is 11.4* cm.

Q: What about the “Climbing speed of flies, Mean” value ([1]; 31st day after drug withdrawal) of the same compound?
A: The value was 1.3*** cm/sec.

Q: And the “climbing speed than the control (Table 2)” value [1, 6]?
A: The value was “lower”.

Q: What about the “Climbing speed, Mean” value [1, 5] of the same compound?
A: The value was 1.9*** cm/sec.

Q: And the “Height climbed, Mean” value [1, 5]?
A: The value was 35.8*** cm.

Q: What about the “height climbed compared to NF, the control” value [1, 7] of the same compound?
A: The value was “increase”.

Q: What about the “Distance walked by flies, Mean” value ([2]; 4th day after drug withdrawal) of the same compound?
A: Its value is 33*** cm marks crossed per minute.

Q: What about the “Distance walked by flies, Mean” value ([2]; 31st day after drug withdrawal) of the same compound?
A: Its value is 6.93*** cm marks crossed per minute.

Q: What about the “distance walked than the control” value [2] of the same compound?
A: The value was “lesser”.

Q: What about the “Distance walked, Mean” value [2, 5] of the same compound?
A: Its value is 34.23 cm marks crossed per minute.

Q: For `C1CCc2nnnn2CC1` [PTZ, pentylenetetrazol], which “Climbing speed of flies, Mean” value ([1]; 4th day after drug withdrawal) is on record?
A: Its value is 1.25** cm/sec.

Q: And the “Climbing speed of flies, Mean” value ([1]; 31st day after drug withdrawal)?
A: Its value is 1.37*** cm/sec.

Q: And the “climbing speed than the control (Table 2)” value [1, 6]?
A: Its value is “lower”.

Q: What about the “Climbing speed, Mean” value ([1]; 168 h) of the same compound?
A: The value was 1.63*** cm/sec.

Q: What about the “Height climbed, Mean” value ([1]; 168 h) of the same compound?
A: The value was 29.13*** cm.

Q: What about the “height climbed compared to NF, the control” value [1, 7] of the same compound?
A: Its value is “increase”.

Q: And the “Distance walked by flies, Mean” value ([2]; 4th day after drug withdrawal)?
A: The value was 28.03*** cm marks crossed per minute.

Q: And the “Distance walked by flies, Mean” value ([2]; 31st day after drug withdrawal)?
A: The value was 12.5* cm marks crossed per minute.

Q: What about the “Distance walked, Mean” value ([2]; 168 h) of the same compound?
A: Its value is 42.5** cm marks crossed per minute.

Q: And the “distance walked than the control” value [2]?
A: The value was “lesser”.
